The record followed here is patent publication US7527935B2, “G-protein coupled receptor having eicosanoid as ligand and gene thereof” (Mitsubishi Tanabe Pharma Corporation, priority 2002, dated 2009).

In test [1] the target is T1, fusion protein of TG1019 protein and Giα1 (Homo sapiens, UniProt P63096+Q8TDS5, C351I/D111G/K206E/T295A).
T1 construct: made in house; host or cells: Sf9 insect cells (baculovirus, pVL1392), membrane fraction
In words: Antagonist assay: inhibition of 5-oxo-ETE-stimulated G-protein activation ([35S]GTPγS binding) of TG1019-Giα1 fusion membrane fraction. The format is biochemical. To be noted: inhibition of G-protein activating effect of TG1019 by 5-oxo-ETE 0.1 μM. As for the experimental part: In the presence of 5-oxo-ETE (a ligand which acts as an agonist) and a test compound, a G-protein activating effect of TG1019 protein based on 5-oxo-ETE stimulation was detected, and an antagonistic effect of the test compound was examined.
Detection of the G-protein activation was carried out in a similar manner as in Example 3 (3) mentioned above, using a membrane fraction containing a fusion protein of TG1019 protein and Giα1 and a labeled GTPγS.
Specifically, a membrane fraction (450 μl) containing a fusion protein of TG1019 protein and Giα1 was suspended in a reaction solution (7.54 ml), and added thereto was 10 μl of GDP (10 mM). To 160 μl of this solution were added 5-oxo-ETE (the final concentration of 0.1 μM) and a test compound at various concentrations (0M, 10^−7M -10^−5M), and the mixture was incubated at 30° C. for 10 minutes (a total amount of 5-oxo-ETE and the test compound: 20 μl).
Added thereto was 20 μl of [^35S] GTPγS to start a reaction. After incubation at 30° C. for one hour, the reaction was terminated by filtration through a glass filter.
An amount of the [^35S] GTPγS (a binding amount to the membrane fraction) on the filter was measured by liquid scintillation counting. From the thus measured [^35S] GTPγS amount was subtracted a nonspecific binding amount (a binding amount measured in the presence of 10 μM GTPγS), to obtain a specific binding amount.
Background: GTPγS is a poorly hydrolysed GTP analogue; its binding reports G protein activation.

In test [2] the target is T2, fusion protein of TG1019 protein and Gqα (Homo sapiens, UniProt Q8TDS5, D111G/K206E/T295A).
T2 construct: made in house; host or cells: Sf9 insect cells (baculovirus, pVL1392), membrane fraction
T2 sequence (Q8TDS5 with tags, fused parts or gaps D111G/K206E/T295A): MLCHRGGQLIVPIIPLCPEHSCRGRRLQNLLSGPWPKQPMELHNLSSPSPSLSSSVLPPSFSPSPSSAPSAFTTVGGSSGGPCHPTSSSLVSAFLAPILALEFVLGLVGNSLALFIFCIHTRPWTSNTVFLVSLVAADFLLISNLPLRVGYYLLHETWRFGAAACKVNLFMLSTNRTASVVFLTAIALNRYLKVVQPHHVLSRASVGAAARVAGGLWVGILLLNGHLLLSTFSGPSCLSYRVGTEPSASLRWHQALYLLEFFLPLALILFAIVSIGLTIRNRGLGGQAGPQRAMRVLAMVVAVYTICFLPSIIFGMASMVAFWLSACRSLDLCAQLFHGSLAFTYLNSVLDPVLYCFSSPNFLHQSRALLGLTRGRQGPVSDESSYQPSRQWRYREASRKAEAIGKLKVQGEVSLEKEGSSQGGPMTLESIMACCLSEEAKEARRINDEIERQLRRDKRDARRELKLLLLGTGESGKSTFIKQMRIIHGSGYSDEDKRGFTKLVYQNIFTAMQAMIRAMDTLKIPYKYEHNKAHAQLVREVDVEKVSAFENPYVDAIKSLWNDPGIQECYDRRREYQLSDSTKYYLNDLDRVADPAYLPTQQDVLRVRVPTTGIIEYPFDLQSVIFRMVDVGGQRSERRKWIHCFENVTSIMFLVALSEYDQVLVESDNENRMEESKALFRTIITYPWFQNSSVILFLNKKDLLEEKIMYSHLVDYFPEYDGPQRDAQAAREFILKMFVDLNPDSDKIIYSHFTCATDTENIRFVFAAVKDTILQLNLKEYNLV
In words: [35S]GTPγS binding to membrane fraction containing TG1019-Gqα fusion protein. Format: biochemical. To be noted: membrane fraction with TG1019-Gqα fusion protein; increase small compared to Giα. The source says: (§1) As stated in Example 1, it is concluded that TG1019 protein is a G-protein coupled receptor. Therefore, using a membrane fraction containing fused protein of TG1019 and G-protein, a ligand is identified as follows, according to a method for detecting a ligand-dependent binding with GTPγS (guanosine 5′-O-(3-thiotriphosphate)) [Wenzel-Seifert, et al., Mol. Pharmacom., Vol. 58, pp. 954-966, 2000; Bahia, et al., Biochemistry, Vol. 37, pp. 11555-11562, 1998].
Sf9 cells were inoculated onto a 10 cm Petri dish coated with collagen to about 70% confluence, and added thereto were Virus solution III (100 μl) obtained above and 12 ml of a culture medium, and the mixture was cultured at 27° C. for 4 days. […]
The membrane fraction (450 μl) obtained above (2) was suspended in a reaction buffer (7.54 ml), and added thereto was GDP (10 mM, 10 μl). […] GTPγS (a binding amount to the membrane fraction) on the filter was measured by liquid scintillation counting. From the thus measured [^35S] GTPγS binding amount was subtracted a nonspecific binding amount (a binding amount measured in the presence of 10 μM GTPγS), to obtain a specific binding amount of [^35S ] […]

Test [3] has as its target T3, fusion protein of TG1019 protein and Giα1 (351Cys→Ile) (Homo sapiens, UniProt P63096+Q8TDS5, C351I/D111G/K206E/T295A).
T3 construct: made in house; host or cells: Sf9 insect cells (baculovirus, pVL1392), membrane fraction
The experiment in a line: [35S]GTPγS binding to membrane fraction containing TG1019-Giα1 (351Cys→Ile) fusion protein (ligand identification). Format: biochemical. Conditions: membrane fraction with TG1019-Giα1 (351Cys→Ile) fusion protein.
Description: as §1
Sf9 cells were inoculated onto a 10 cm Petri dish coated with collagen to about 70% confluence, and added thereto were Virus solution III (100 μl) obtained above and 12 ml of a culture medium, and the mixture was cultured at 27° C. for 4 days. The obtained cells were washed with a cooled PBS (Phosphate buffered saline, pH 7.4), and suspended in 3.6 ml of a cooled solution buffer [20 mM Tris-HCl, pH 7.5, 1 mM EDTA, 0.2 mM phenylmethylsulfonyl fluoride, 10 μg/ml pepstatin, 10 μg/ml leupeptin, and 2 μg/ml aprotinin], and the cells were homogenized by means of a Teflon homogenizer. This cell homogenate was centrifuged (600×g, 10 minutes), and the resultant supernatant was further centrifuged (50,000×g, 20 minutes). The obtained sediments were suspended in 450 μl of a cooled reaction buffer [20 mM Tris-HCl, pH 7.5, 50 mM sodium chloride, 10 mM magnesium chloride] by means of a Teflon homogenizer, to prepare a membrane fraction containing a fusion protein.
The membrane fraction (450 μl) obtained above (2) was suspended in a reaction buffer (7.54 ml), and added thereto was GDP (10 mM, 10 μl). To 160 μl of this solution was added 20 μl of a test compound. After incubating the mixture at 30° C. for 10 minutes, 20 μl of [^35S] GTPγS (5 nM, 5 nCi/μl: available from Amersham Pharmacia Biotech) was added to start reaction. After incubating the mixture at 30° C. for one hour, the reaction was terminated by filtration through a glass filter (UniFilter-96GF/B, available from Packard). The filter was washed with 200 μl of a cooled reaction buffer for 3 times, and an amount of the [^35S] GTPγS (a binding amount to the membrane fraction) on the filter was measured by liquid scintillation counting. From the thus measured [^35S] GTPγS binding amount was subtracted a nonspecific binding amount (a binding amount measured in the presence of 10 μM GTPγS), to obtain a specific binding amount of [^35S ] GTPγS.

The subject of test [4] is PC3 human prostate cancer cells. In words: Apoptosis analysis (annexin V / PI flow cytometry) in PC3 cells. Format: cell-based. To be noted: 20 μl of 1 mM DHA in 2 ml, 2 hours. As for the experimental part: PC3 human prostate cancer cells, which had been cultured in RPMI1640 culture medium supplemented with 10% fetal bovine serum were dissociated by trypsin-EDTA solution (GibcoBRL), and suspended in RPMI1640 culture medium supplemented with 0.5% fetal bovine serum. The cells were plated onto a 6 cm Petri dish to 2×10^5 cells/dish, and cultured at 37° C. for 18 hours in a CO2 incubator. The supernatant was removed and 1980 μl of the same medium was added, and 20 μl of 1 mM DHA was further added thereto, and the mixture was cultured at 37° C. for 2 hours in a CO2 incubator.
In addition, as a test in the presence of 5-oxo-ETE, 1960 μl of RPMI1640 culture medium supplemented with 0.5% fetal bovine serum was added, and 20 μl of a 100 μM 5-oxo-ETE solution and 20 μl of a 1 mM DHA solution were further added thereto, and the cells were cultured in a similar manner as described above.
The adhered cells were removed by a cell scraper, transferred to a 1.5 ml tube, and centrifuged at 800×g for 5 minutes at 4° C., to collect suspended and adhered cells. […] The cells were suspended in 100 μl of a FITC-Annexin solution, and after 15 minutes of reaction under light-shielded condition at room temperature, 300 μl of Binding buffer was added thereto, and the FITC-Annexin bound to the cells and propidium iodide (PI) uptake into the cells were measured, by means of flow cytometer [Becton Dickinson].
(In flow cytometry, cells or beads pass a laser one at a time.)

Test [5] relates to TG1019 (5-oxo-ETE receptor). In words: Intracellular calcium level in CHO cells stably expressing TG1019. Format: cell-based, human. To be noted: FuraII 340/380 nm ratio. The protocol:
(1) Preparation of cells stably expressing TG1019 Cells stably expressing TG1019 (the receptor protein of the present invention) and cells not expressing TG1019 were prepared by introducing to CHO cells the TG1019 protein expression vector prepared in Example 5 and the control vector, as described below.
The cells stably expressing TG1019 prepared in the above section (1) was incubated in DMEM/F12 medium supplemented with 10% fetal bovine serum at 37° C. in a CO2 incubator. To the cells which were 80 to 90% confluent, was added a cell dissociation buffer (Cell Dissociation Buffer Enzyme-free PBS-based, available from Invitrogen), and cells were dissociated by incubating at 37° C. for 5 minutes. […]
The cells after loading were centrifuged once with an assay buffer, to remove supernatant, and then, they were suspended in an assay buffer to have a concentration of 3.7 to 6.3×10^6 cells/ml. This cell suspension was portioned into a 96 well plate by 80 μl/well, and the plate was set in a fluorescence measuring device (FDSS6000, [Hamamatsu Photonics]), and the reaction was started by adding a solution containing 5-oxo-ETE or 5-HETE in a 5 fold concentration dissolved in an assay buffer, by 20 μl/well. The measurement was done by measuring fluorescence intensity at 510 nm, with excitation wavelength of 340 nm and 380 nm.
A general note: Calcium assays in cells follow changes in intracellular calcium, usually with a dye or a luminescent sensor.

T3 sequence (Q8TDS5+P63096 fused Q8TDS5:D111G/Q8TDS5:K206E/Q8TDS5:T295A/P63096:C351I): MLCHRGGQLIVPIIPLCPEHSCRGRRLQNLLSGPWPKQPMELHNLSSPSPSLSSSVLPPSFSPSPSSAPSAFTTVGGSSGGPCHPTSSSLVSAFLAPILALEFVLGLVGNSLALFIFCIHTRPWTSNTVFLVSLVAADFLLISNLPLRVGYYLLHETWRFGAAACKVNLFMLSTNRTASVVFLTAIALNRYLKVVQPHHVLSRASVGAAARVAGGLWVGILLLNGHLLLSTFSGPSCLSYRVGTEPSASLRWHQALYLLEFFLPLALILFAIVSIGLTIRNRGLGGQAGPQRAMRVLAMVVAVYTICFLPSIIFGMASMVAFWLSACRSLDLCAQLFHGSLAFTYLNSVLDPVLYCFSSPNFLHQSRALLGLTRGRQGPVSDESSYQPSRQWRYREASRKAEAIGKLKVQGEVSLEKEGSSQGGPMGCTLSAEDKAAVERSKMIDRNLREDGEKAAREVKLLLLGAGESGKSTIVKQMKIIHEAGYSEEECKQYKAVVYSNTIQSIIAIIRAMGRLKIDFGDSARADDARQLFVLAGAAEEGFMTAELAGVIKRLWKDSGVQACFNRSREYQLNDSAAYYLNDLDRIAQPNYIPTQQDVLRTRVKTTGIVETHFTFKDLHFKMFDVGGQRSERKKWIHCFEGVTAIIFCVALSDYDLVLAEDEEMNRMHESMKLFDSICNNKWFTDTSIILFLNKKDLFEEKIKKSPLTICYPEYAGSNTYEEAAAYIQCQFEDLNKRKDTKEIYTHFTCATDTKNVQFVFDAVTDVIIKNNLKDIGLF
T1 sequence (Q8TDS5+P63096 fused Q8TDS5:D111G/Q8TDS5:K206E/Q8TDS5:T295A/P63096:C351I): as above

On to `CC/C=C\C/C=C\C/C=C\CCCCCCCCCC(=O)O` [Eicosa-11Z, 14Z, 17Z-trienoic acid], for which the IC50 (usually the concentration that inhibits the measured activity by half) in test [1] is 5.1 ± 0.6 µM. Consider `CCCCC/C=C\C/C=C\C/C=C\C=C\C(CCCC(=O)O)OO` (centres unmarked) [5-HPETE, 5-hydroperoxyeicosa-6E,8Z,11Z,14Z-tetraenoic acid], for which the “specific binding amount of [35S]GTPγS” value in test [2] was “increased”; in test [3], “increased in a concentration-dependent manner”. For the compound `CCCCC/C=C\C/C=C\C/C=C\C/C=C\CCCC(=O)O` [arachidonic acid], the “specific binding amount of [35S]GTPγS” value in test [3] was “increased in a concentration-dependent manner”. `CCCCCCCC/C=C\C/C=C\C=C\C(O)CCCC(=O)O` (centres unmarked) [5-HETrE, 5-hydroxyeicosa-6E,8Z,11Z-trienoic acid]: the “specific binding amount of [35S]GTPγS” value in test [3] is “increased in a concentration-dependent manner”. For `CC/C=C\C/C=C\C/C=C\C/C=C\C/C=C\C/C=C\CCC(=O)O` [DHA, 4Z, 7Z, 10Z, 13Z, 16Z, 19Z-docosahexaenoic acid], the IC50 in test [1] came to 1.6 ± 0.2 µM. In addition, the “induction of apoptosis (cells annexin positive, PI uptake negative)” value in test [4] is recorded as “induces apoptosis of PC3 cells”.

`CCCCC/C=C\C/C=C\C/C=C\C=C\C(O)CCCC(=O)O` (centres unmarked) [5-HETE, 5-hydroxyeicosa-6E,8Z,11Z,14Z-tetraenoic acid]: the “change in intracellular calcium level” value in test [5] was “increase in intracellular calcium level”. In test [3], the “specific binding amount of [35S]GTPγS” value was “increased in a concentration-dependent manner”. Take `CCCCC/C=C\C/C=C\C/C=C\CCCCCCC(=O)O` [Dihomo-γ-linolenic accid]: the IC50 in test [1] was found to be 3.7 ± 0.7 µM. In test [1], `CC/C=C\C/C=C\C/C=C\C/C=C\C/C=C\CCCC(=O)O` [EPA, 5Z, 8Z, 11Z, 14Z, 17Z-eicosapentaenoic acid] returned an IC50 of 6 ± 1.2 µM. For `CCCCCCCCC#CCC#CCC#CCCCC(=O)O` [ETI, 5,8,11-eicosatriynoic acid], the “specific binding amount of [35S]GTPγS” value in test [3] is “increased in a concentration-dependent manner”. In the case of `CCCCCCCCCCC/C=C\C/C=C\CCCC(=O)O` [eicosa-5Z,8Z-dienoic acid], the “specific binding amount of [35S]GTPγS” value in test [3] is recorded as “increased in a concentration-dependent manner”. Still for that read-out and setting: the result for `CCCCCCCC/C=C\C/C=C\C/C=C\CCCC(=O)O` [eicosa-5Z,8Z,11Z-trienoic acid] reads “increased in a concentration-dependent manner”.
